# In ChEMBL document CHEMBL1201862, “PubChem BioAssay data set” (2004):
#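 How tested: cells in 96-well plates exposed to compound for 48 hours at five concentrations. Abbreviation: GI50, concentration required for 50% inhibition of growth.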 Calls of active or inactive are those of the source. No stated cut-off is given here; in the data, active = GI50 up to about 1.1 µM and inactive = higher.
# Assays:
# Experiment in all cases: DTP human tumour cell line panel, 48 h
# ACHN = tested on: ACHN
# DU-145 = tested on: DU-145
# EKVX = tested on: EKVX
# HCT-116 = tested on: HCT-116
# HCT-15 = tested on: HCT-15
# HT-29 = tested on: HT-29
# KM12 = tested on: KM12
# NCI-H226 = tested on: NCI-H226
# NCI-H460 = tested on: NCI-H460
# OVCAR-8 = tested on: OVCAR-8
# PC-3 = tested on: PC-3
# SF-295 = tested on: SF-295
# SF-539 = tested on: SF-539
# SK-MEL-5 = tested on: SK-MEL-5
# SN12C = tested on: SN12C
# U-251 = tested on: U-251
# UACC-257 = tested on: UACC-257
# UACC-62 = tested on: UACC-62
# UO-31 = tested on: UO-31
Compound,GI50 (ACHN),GI50 (DU-145),GI50 (EKVX),GI50 (HCT-116),GI50 (HCT-15) [µM],GI50 (HT-29),GI50 (KM12),GI50 (NCI-H226),GI50 (NCI-H460),GI50 (OVCAR-8),GI50 (PC-3),GI50 (SF-295),GI50 (SF-539),GI50 (SK-MEL-5),GI50 (SN12C),GI50 (U-251),GI50 (UACC-257),GI50 (UACC-62),GI50 (UO-31)
COC(=N)C1(C#N)NC(c2ccsc2)C(C#N)(C#N)NC1c1ccsc1 (configuration not stated),> 100 µM (inactive),> 100 µM (inactive),> 100 µM (inactive),> 100 µM (inactive),> 100,> 100 µM (inactive),> 100 µM (inactive),> 100 µM (inactive),> 100 µM (inactive),> 100 µM (inactive),81.1 µM (inactive),> 100 µM (inactive),> 100 µM (inactive),> 100 µM (inactive),> 100 µM (inactive),> 100 µM (inactive),> 100 µM (inactive),> 100 µM (inactive),> 100 µM (inactive)
CC(=O)O[C@H]1C(=O)[C@@]2(C)C([C@H](OC(=O)c3ccccc3)[C@]3(O)C[C@H](OC(=O)[C@H](O)[C@@H](NC(=O)c4ccc(Cl)cc4)c4ccccc4)C(C)=C1C3(C)C)C1(OC(C)=O)CO[C@@H]1C[C@@H]2O (some centres not stated),6.47 µM (inactive),0.0865 µM (active),9.2 µM (inactive),0.0499 µM (active),1.36,0.03 µM (active),0.0466 µM (active),0.173 µM (active),0.0668 µM (active),0.0778 µM (active),0.0615 µM (active),0.6 µM (active),0.0689 µM (active),< 0.01 µM (active),0.182 µM (active),0.092 µM (active),0.109 µM (active),0.0435 µM (active),11.1 µM (inactive)
CCN1C(Cl)=NS(=O)(=O)c2ccccc21,16.5 µM (inactive),36.7 µM (inactive),23.8 µM (inactive),23.8 µM (inactive),9.86,18.8 µM (inactive),51.8 µM (inactive),21.6 µM (inactive),22.8 µM (inactive),28.3 µM (inactive),50 µM (inactive),> 100 µM (inactive),15.9 µM (inactive),13.6 µM (inactive),18.6 µM (inactive),62.1 µM (inactive),28 µM (inactive),9.06 µM (inactive),16.9 µM (inactive)
CC1OC(O[C@H]2CC[C@]3(C=O)[C@H]4CC[C@]5(C)[C@H](C6=CC(=O)OC6)CC[C@]5(O)[C@@H]4C=C[C@]3(O)C2)CC(O)C1O (some centres not stated),0.106 µM (active),0.128 µM (active),0.261 µM (active),0.0885 µM (active),0.289,0.321 µM (active),0.676 µM (active),0.514 µM (active),0.118 µM (active),0.346 µM (active),0.306 µM (active),0.13 µM (active),0.169 µM (active),0.0991 µM (active),0.117 µM (active),0.355 µM (active),0.579 µM (active),0.434 µM (active),0.214 µM (active)
C1C2CC3CC1CC(c1nn4c(C56CC7CC(CC(C7)C5)C6)nnc4s1)(C2)C3,> 100 µM (inactive),> 100 µM (inactive),> 100 µM (inactive),> 100 µM (inactive),> 100,> 100 µM (inactive),> 100 µM (inactive),> 100 µM (inactive),> 100 µM (inactive),–,> 100 µM (inactive),> 100 µM (inactive),> 100 µM (inactive),> 100 µM (inactive),> 100 µM (inactive),> 100 µM (inactive),–,> 100 µM (inactive),> 100 µM (inactive)
CN(C)CCNC(=O)c1cccc2c1Oc1c(cccc1[N+](=O)[O-])O2,0.335 µM (active),0.57 µM (active),3.22 µM (inactive),0.817 µM (active),0.544,1.41 µM (inactive),1.26 µM (inactive),0.288 µM (active),0.413 µM (active),1.71 µM (inactive),1.95 µM (inactive),0.548 µM (active),1.39 µM (inactive),1.28 µM (inactive),0.74 µM (active),0.787 µM (active),2 µM (inactive),0.419 µM (active),0.885 µM (active)
N#Cc1c(N)c2c(c(-c3ccccc3)c1-c1ccccc1)C(=O)N(Nc1ccccc1)C2=O,59.2 µM (inactive),31.3 µM (inactive),42.4 µM (inactive),12.9 µM (inactive),45.7,–,24.2 µM (inactive),37.3 µM (inactive),34 µM (inactive),78.3 µM (inactive),28.3 µM (inactive),41.5 µM (inactive),35.8 µM (inactive),28.8 µM (inactive),30.7 µM (inactive),93.5 µM (inactive),48.6 µM (inactive),49.9 µM (inactive),24.7 µM (inactive)
C=C1C(O)C23CCC4C(C(=O)O)(C(=O)O)CC(OC5OC(CO)C(O)C(OC(=O)CCc6ccccc6)C5NC(=O)CC(C)C)CC4(C)C2CCC1(O)C3 (configuration not stated),> 100 µM (inactive),> 100 µM (inactive),> 100 µM (inactive),> 100 µM (inactive),> 100,> 100 µM (inactive),> 100 µM (inactive),> 100 µM (inactive),> 100 µM (inactive),> 100 µM (inactive),> 100 µM (inactive),> 100 µM (inactive),> 100 µM (inactive),> 100 µM (inactive),> 100 µM (inactive),> 100 µM (inactive),> 100 µM (inactive),> 100 µM (inactive),> 100 µM (inactive)
Cn1c2ccccc2c(=O)c2cccc(C(=O)NC(CCC(N)=O)C(=O)O)c21 (configuration not stated),> 100 µM (inactive),> 100 µM (inactive),> 100 µM (inactive),> 100 µM (inactive),> 100,> 100 µM (inactive),> 100 µM (inactive),> 100 µM (inactive),> 100 µM (inactive),> 100 µM (inactive),> 100 µM (inactive),> 100 µM (inactive),> 100 µM (inactive),> 100 µM (inactive),> 100 µM (inactive),> 100 µM (inactive),> 100 µM (inactive),> 100 µM (inactive),> 10 µM (inactive)
CN1C2CCC1CC(=CCOC(c1ccc(F)cc1)c1ccc(F)cc1)C2,17.4 µM (inactive),16.9 µM (inactive),18.8 µM (inactive),11.8 µM (inactive),15.7,5.21 µM (inactive),15 µM (inactive),20.3 µM (inactive),17.2 µM (inactive),17.1 µM (inactive),16.1 µM (inactive),16.9 µM (inactive),16.4 µM (inactive),10.3 µM (inactive),17.3 µM (inactive),17.2 µM (inactive),16.1 µM (inactive),15.1 µM (inactive),9.91 µM (inactive)
